What was measured:
Test in all cases: KinomeScan profiling
Type in all cases: binding
[1] = biological target: T1, ABL1(T315I)-phosphorylated (Homo sapiens, UniProt P00519, T315I); settings: read-out: % control
T1 construct: purchased KinomeScan®
Procedure, shortened: (§1)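 1 μM cpd in DMSO; 468-kinase panel; readout RLU. % ctrl = (cpd − pos ctrl)/(neg ctrl − pos ctrl) ×100. Pos ctrl = 0%, DMSO = 100%. Hit cut-off <35%.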

ABL1-nonphosphorylated = biological target: T2, ABL1-nonphosphorylated (Homo sapiens, UniProt P00519); settings: read-out: % control
T2 construct: purchased KinomeScan®
Procedure, shortened: as §1

ABL2 = biological target: T3, ABL2 (Homo sapiens, UniProt P42684); settings: ABL2, 1 μM; read-out: % control
T3 construct: purchased KinomeScan®
T3 sequence (P42684 whole entry): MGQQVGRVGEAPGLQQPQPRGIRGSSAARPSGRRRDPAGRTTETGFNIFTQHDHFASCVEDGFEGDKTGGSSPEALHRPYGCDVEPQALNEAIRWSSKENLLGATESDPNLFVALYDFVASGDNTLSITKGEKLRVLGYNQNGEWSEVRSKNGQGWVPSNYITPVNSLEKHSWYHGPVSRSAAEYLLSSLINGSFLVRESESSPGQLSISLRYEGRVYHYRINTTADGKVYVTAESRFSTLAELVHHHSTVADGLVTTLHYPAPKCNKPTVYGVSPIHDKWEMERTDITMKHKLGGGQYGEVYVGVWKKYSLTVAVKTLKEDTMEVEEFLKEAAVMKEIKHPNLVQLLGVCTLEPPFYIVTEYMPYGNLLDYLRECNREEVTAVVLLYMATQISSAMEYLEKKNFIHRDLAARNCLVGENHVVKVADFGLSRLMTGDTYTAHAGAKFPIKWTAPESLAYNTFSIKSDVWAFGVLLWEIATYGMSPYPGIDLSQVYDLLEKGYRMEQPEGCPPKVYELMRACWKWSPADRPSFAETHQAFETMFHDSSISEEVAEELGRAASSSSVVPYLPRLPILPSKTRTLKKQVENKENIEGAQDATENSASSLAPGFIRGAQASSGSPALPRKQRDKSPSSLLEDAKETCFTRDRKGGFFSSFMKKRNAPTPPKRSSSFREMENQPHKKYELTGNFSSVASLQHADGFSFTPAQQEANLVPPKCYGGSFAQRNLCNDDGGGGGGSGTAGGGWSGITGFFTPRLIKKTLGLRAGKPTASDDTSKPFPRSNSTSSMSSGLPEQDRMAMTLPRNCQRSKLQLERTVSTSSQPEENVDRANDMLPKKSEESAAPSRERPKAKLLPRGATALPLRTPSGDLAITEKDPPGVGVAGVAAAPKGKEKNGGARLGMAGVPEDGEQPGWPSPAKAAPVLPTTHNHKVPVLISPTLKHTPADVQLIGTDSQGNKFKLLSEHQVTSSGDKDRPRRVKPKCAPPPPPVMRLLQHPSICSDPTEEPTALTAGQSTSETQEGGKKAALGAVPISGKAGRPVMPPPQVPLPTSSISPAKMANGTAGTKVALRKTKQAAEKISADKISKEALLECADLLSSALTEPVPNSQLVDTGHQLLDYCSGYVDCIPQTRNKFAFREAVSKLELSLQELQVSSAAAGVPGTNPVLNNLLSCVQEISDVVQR
Procedure, shortened: as §1

CDK4 = CDK4 (Homo sapiens, UniProt P11802); settings: CDK4, 1 μM; read-out: % control
CDK4, sequence (P11802 whole entry): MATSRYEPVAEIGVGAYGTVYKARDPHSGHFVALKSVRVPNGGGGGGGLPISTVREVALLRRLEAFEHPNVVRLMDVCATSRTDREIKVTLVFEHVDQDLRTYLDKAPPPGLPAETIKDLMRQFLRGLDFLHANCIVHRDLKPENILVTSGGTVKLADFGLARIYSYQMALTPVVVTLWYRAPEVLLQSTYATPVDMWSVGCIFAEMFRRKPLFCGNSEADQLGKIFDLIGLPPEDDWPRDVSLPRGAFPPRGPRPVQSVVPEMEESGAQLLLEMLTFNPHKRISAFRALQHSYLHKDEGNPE
Procedure, shortened: as §1

CIT = CIT (Homo sapiens, UniProt O14578); settings: read-out: % control
CIT, sequence (O14578 whole entry): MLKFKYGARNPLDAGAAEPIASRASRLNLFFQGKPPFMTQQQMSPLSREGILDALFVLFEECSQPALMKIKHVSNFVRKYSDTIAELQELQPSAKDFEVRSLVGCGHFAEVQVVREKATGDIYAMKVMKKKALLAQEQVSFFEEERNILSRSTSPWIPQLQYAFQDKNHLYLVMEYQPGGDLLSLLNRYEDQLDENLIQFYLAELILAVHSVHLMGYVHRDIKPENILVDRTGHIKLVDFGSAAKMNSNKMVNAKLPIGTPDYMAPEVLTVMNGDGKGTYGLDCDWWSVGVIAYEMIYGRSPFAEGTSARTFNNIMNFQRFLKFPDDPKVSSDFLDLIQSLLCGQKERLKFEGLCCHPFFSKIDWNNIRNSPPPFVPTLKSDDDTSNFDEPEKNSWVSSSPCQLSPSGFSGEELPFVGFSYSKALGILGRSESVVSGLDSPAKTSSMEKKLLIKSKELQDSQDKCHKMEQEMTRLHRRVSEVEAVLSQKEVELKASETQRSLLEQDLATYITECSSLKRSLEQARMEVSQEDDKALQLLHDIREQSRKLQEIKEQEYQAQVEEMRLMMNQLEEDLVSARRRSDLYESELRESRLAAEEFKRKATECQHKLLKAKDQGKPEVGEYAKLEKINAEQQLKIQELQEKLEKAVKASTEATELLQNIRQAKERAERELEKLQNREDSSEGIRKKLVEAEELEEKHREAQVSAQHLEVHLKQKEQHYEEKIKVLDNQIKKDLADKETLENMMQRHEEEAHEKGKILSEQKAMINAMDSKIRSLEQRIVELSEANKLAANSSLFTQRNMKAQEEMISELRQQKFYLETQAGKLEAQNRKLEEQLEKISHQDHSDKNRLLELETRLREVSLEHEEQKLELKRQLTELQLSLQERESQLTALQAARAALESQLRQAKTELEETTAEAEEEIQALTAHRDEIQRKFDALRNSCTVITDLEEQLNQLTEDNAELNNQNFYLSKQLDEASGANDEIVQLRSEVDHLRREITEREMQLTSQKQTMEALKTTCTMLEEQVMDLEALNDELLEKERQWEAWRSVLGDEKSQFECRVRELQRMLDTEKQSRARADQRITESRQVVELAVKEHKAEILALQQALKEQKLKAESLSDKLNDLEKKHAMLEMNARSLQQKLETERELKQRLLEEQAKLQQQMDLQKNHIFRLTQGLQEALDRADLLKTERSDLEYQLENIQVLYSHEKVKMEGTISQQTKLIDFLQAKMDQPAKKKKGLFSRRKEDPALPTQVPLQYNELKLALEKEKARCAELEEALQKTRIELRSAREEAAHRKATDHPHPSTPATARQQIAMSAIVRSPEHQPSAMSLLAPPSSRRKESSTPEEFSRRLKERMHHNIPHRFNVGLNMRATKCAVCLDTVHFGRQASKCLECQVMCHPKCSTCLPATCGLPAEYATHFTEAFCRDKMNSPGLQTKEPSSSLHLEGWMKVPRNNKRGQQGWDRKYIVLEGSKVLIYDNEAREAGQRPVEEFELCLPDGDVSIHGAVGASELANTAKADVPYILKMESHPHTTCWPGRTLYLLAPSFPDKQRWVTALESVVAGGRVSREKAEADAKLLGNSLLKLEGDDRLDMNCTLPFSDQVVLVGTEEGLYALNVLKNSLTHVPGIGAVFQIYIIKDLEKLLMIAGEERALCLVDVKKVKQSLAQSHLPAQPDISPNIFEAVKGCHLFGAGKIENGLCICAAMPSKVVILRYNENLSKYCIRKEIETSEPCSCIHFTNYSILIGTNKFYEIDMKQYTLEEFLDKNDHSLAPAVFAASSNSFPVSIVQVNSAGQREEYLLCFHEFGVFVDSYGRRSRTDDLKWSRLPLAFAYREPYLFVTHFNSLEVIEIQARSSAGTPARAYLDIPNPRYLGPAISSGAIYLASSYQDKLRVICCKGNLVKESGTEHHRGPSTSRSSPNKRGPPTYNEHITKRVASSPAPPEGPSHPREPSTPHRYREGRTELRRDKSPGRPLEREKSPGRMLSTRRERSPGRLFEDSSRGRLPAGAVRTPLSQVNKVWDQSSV
Procedure, shortened: as §1

MAP3K2 = biological target: T4, MAP3K2 (Homo sapiens, UniProt Q9Y2U5); settings: MAP3K2, 1 μM; read-out: % control
T4 sequence (Q9Y2U5 1-619): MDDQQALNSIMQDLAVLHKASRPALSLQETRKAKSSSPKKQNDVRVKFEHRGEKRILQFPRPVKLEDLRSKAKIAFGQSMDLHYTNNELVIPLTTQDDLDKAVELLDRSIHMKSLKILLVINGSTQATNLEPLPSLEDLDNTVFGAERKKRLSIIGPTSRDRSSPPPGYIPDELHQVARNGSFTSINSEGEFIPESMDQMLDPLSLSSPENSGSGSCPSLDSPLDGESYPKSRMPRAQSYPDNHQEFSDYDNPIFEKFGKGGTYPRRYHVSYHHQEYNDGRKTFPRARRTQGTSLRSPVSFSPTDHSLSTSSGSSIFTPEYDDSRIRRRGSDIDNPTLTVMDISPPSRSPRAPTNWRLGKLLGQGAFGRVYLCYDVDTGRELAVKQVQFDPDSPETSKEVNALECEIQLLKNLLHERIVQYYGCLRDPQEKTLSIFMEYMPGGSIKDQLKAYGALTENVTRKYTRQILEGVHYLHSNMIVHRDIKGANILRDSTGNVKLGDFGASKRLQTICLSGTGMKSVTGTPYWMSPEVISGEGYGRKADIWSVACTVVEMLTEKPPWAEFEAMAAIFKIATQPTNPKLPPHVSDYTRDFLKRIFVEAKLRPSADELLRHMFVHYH
Procedure, shortened: as §1

PIP5K2B = biological target: T5, PIP5K2B (Homo sapiens, UniProt P78356); settings: read-out: % control
T5 construct: purchased KinomeScan® (panel service)
T5 sequence (P78356 1-416): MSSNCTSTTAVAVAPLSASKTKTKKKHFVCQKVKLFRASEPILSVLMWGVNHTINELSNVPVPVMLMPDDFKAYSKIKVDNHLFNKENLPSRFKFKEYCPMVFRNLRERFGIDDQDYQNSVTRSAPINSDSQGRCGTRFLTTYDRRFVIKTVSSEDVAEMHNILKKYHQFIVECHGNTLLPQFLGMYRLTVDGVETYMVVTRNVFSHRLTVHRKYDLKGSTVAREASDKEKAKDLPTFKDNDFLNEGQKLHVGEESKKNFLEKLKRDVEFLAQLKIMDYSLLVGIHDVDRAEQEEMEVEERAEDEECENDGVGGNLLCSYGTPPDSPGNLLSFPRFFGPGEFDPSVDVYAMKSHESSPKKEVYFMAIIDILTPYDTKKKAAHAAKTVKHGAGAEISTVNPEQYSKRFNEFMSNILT
Procedure, shortened: as §1

[2] = biological target: T6, RSK2(Kin.Dom.2-C-terminal) (Homo sapiens, UniProt P51812); settings: read-out: % control
T6 construct: RSK2(Kin.Dom.2-C-terminal)
T6 sequence (P51812 422-679 limits assumed): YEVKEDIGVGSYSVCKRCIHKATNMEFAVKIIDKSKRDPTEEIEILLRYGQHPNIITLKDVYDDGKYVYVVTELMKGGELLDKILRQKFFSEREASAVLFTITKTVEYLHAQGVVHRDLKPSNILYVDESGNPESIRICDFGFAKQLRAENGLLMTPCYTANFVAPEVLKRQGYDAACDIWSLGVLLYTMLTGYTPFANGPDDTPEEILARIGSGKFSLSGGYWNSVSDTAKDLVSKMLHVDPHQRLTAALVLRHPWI
Procedure, shortened: as §1

SNRK = biological target: T7, SNRK (Homo sapiens, UniProt Q9NRH2); settings: read-out: % control
T7 construct: purchased KinomeScan® (panel service)
T7 sequence (Q9NRH2 1-765): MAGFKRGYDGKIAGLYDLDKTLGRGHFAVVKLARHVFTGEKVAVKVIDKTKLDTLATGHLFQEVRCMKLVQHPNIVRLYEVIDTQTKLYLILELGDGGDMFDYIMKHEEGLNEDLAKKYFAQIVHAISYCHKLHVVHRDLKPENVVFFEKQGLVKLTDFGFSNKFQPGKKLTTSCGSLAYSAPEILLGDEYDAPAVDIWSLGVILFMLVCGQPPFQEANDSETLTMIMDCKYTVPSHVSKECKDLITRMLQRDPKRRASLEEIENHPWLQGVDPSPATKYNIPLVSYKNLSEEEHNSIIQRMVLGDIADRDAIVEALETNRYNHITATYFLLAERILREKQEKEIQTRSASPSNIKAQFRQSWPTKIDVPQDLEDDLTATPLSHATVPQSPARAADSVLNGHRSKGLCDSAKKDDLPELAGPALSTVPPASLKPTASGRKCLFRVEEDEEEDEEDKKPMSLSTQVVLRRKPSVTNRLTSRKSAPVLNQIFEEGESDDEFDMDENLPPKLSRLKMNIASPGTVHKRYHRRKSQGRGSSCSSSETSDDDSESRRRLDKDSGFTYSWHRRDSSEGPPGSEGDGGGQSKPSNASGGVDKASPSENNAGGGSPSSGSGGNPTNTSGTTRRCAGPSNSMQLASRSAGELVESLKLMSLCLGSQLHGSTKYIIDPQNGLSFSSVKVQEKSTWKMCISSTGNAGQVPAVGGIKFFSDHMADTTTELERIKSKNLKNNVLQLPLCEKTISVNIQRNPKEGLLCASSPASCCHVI
Procedure, shortened: as §1

SRPK1 = biological target: T8, SRPK1 (Homo sapiens, UniProt Q96SB4); settings: SRPK1, 1 μM; read-out: % control
T8 construct: purchased KinomeScan® (panel service)
T8 sequence (Q96SB4 whole entry): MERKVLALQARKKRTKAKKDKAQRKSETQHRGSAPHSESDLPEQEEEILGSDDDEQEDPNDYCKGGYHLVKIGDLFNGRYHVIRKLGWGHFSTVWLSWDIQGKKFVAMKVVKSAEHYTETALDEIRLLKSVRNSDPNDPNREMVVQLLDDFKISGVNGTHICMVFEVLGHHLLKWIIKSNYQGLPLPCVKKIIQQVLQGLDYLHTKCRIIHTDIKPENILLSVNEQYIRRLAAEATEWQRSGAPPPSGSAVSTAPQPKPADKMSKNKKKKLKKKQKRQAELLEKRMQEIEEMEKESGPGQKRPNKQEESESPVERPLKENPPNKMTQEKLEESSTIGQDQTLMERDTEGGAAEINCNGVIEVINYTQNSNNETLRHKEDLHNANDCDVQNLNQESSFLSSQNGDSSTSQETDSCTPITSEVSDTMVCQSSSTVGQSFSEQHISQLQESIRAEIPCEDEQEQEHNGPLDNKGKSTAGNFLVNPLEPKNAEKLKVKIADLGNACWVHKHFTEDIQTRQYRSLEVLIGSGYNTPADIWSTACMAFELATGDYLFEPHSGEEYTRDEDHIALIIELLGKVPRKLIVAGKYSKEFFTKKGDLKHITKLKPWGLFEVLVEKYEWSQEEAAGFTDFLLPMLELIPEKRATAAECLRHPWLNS
Procedure, shortened: as §1

SMILES | remaining binding at 1 µM [1] [%] | remaining binding at 1 µM (ABL1-nonphosphorylated) [%] | remaining binding at 1 µM (ABL2) [%] | remaining binding at 1 µM (CDK4) [%] | remaining binding at 1 µM (CIT) [%] | remaining binding at 1 µM (MAP3K2) [%] | remaining binding at 1 µM (PIP5K2B) [%] | remaining binding at 1 µM [2] [%] | remaining binding at 1 µM (SNRK) [%] | remaining binding at 1 µM (SRPK1) [%]
O=C(c1ccc(-c2cnc3[nH]cc(Cl)c3c2NC2CCCC2)cc1)N1CCC(N2CCOCC2)CC1 [Compound 101, (4-(3-chloro-4-(cyclopentylamino)-1H-pyrrolo[2,3-b]pyridin-5-yl)phenyl)(4-morpholinopiperidin-1-yl)methanone] | 95 | 98 | 99 | 100 | 21 | 35 | 12 | 83 | 100 | 27
CNc1c(-c2cnn([C@H]3CCN(C(C)=O)C[C@@H]3F)c2)cnc2[nH]cc(Cl)c12 [Compound 77, 1-((3S,4S)-4-(4-(3-chloro-4-(methylamino)-1H-pyrrolo[2,3-b]pyridin-5-yl)-1H-pyrazol-1-yl)-3-fluoropiperidin-1-yl)ethan-1-one] | 31 | 54 | 92 | 85 | 6.8 | 25 | 3.4 | 98 | 100 | 10
CNc1c(-c2ccc(C(=O)N3CCC(N4CCOCC4)CC3)cc2)cnc2[nH]cc(Cl)c12 [Compound 96, (4-(3-chloro-4-(methylamino)-1H-pyrrolo[2,3-b]pyridin-5-yl)phenyl)(4-morpholinopiperidin-1-yl)methanone] | 52 | 63 | 100 | 98 | 11 | 29 | 4.9 | 97 | 100 | 17
